According to ChEMBL document CHEMBL1201862, “PubChem BioAssay data set” (2004):
Values belong to the compound of their own block, whether it stands above or below them. Activity calls are given as the source filed them.

Assays:
[1] = cytotoxicity toward NIH3T3 fibroblasts, dose response, counter-screen, cell-based, ATP luminescence, mouse fibroblasts (AID 2010); assay type: functional;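 further: cells exposed to compound for about 90 hours before reading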
[2] = tested on: Streptococcus sp. 'group A'; test: growth inhibition of control SK(-) GAS strain, dose response, counter-screen for streptokinase expression inhibitor project, luminescence, kanamycin, BacTiterGlo, confirmation (AID 1900); assay type: functional, organism-based
Protein Tat = Protein Tat (Human immunodeficiency virus type 1 group M subtype B (isolate HXB2)(HIV-1), UniProt P04608); assay type: functional;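 further: tat binding to TAR RNA read out by fluorescence polarization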
[3] = biological target: T1, Rac GTPase-activating protein 1 (Homo sapiens, UniProt Q9H0H5); test: MgcRacGAP GTPase-activating activity inhibitors, confirmation, biochemical, ADP Hunter fluorescence, primary and confirmatory (AID 624330); assay type: functional
T1 sequence (Q9H0H5 whole entry): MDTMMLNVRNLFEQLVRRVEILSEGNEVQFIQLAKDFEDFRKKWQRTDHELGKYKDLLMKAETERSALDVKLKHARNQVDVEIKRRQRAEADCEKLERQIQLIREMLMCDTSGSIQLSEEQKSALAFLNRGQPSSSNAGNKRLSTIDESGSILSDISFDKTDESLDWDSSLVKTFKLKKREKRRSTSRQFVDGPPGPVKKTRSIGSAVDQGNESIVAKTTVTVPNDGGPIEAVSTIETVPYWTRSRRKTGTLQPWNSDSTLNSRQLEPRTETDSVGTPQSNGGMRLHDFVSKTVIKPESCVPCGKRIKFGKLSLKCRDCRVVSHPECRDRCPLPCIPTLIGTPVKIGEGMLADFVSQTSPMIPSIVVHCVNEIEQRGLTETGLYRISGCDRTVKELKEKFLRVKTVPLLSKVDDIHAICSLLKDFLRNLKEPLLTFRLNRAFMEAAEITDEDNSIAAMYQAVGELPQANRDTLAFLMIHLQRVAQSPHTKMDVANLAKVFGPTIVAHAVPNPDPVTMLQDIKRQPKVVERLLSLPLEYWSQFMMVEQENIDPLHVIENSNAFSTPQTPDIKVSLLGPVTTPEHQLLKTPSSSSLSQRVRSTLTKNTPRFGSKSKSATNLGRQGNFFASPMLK

[4] = TRPM1 promoter luciferase reporter signal decrease, dose response, MITF inhibitor project, cell-based, SK-MEL-5, dry powder, set 9 (AID 651588); assay type: functional
INS1 = test: beta cell apoptosis inhibitors, cytokine rescue, dose response, luminescence, retest (AID 449756); assay type: functional, cell-based; details: Rattus norvegicus;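 further: cell death triggered by IL-1 beta plus TNF-alpha plus IFN-gamma mixture; protective hits raise ATP signal compared with cytokine alone wells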
[5] = biological target: Dual specificity protein kinase CLK2 (Homo sapiens, UniProt P49760); assay type: functional
Activin receptor type-1 = Activin receptor type-1 (Homo sapiens, UniProt Q04771); test: Navigating the Kinome. Panel member name: ACVR1; assay type: functional
[6] = biological target: Vascular endothelial growth factor receptor 2 (Homo sapiens, UniProt P35968); assay type: functional
[7] = biological target: Dual specificity tyrosine-phosphorylation-regulated kinase 4 (Homo sapiens, UniProt Q9NR20); assay type: functional
[8] = biological target: Tyrosine-protein kinase SYK (Homo sapiens, UniProt P43405); assay type: functional
[9] = biological target: Leucine-rich repeat serine/threonine-protein kinase 2 (Homo sapiens, UniProt Q5S007); assay type: functional;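 further: value from a broad kinome-wide panel profiling study in which LRRK2 was one of the kinases tested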
[10] = biological target: Serine/threonine-protein kinase Chk2 (Homo sapiens, UniProt O96017); assay type: functional;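 further: CHEK2 entry within a kinome-wide screening panel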
[11] = biological target: Serine/threonine-protein kinase pim-3 (Homo sapiens, UniProt Q86V86); assay type: functional;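 further: value obtained as one member of a broad kinase panel profiling effort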
[12] = biological target: RAC-gamma serine/threonine-protein kinase (Homo sapiens, UniProt Q9Y243); assay type: functional
[13] = biological target: Homeodomain-interacting protein kinase 4 (Homo sapiens, UniProt Q8NE63); assay type: functional
[14] = biological target: Mitogen-activated protein kinase 9 (Homo sapiens, UniProt P45984); assay type: functional;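 further: value from a kinome panel profiling assay, MAPK9 panel entry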
[15] = biological target: Casein kinase I isoform gamma-1 (Homo sapiens, UniProt Q9HCP0); assay type: functional;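 further: measured as the CSNK1G1 member of a kinome profiling panel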
[16] = biological target: Fibroblast growth factor receptor 1 (Homo sapiens, UniProt P11362); assay type: functional
[17] = biological target: MAP kinase-activated protein kinase 2 (Homo sapiens, UniProt P49137); assay type: functional;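 further: measured as one member of a kinome-wide kinase panel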
[18] = biological target: Inhibitor of nuclear factor kappa-B kinase subunit epsilon (Homo sapiens, UniProt Q14164); test: Navigating the Kinome. Panel member name: IKBKE; assay type: functional
[19] = biological target: Dual specificity tyrosine-phosphorylation-regulated kinase 1A (Homo sapiens, UniProt Q13627); assay type: functional;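 further: measured against DYRK1A as one member of a broad kinome profiling panel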
[20] = biological target: Mast/stem cell growth factor receptor Kit (Homo sapiens, UniProt P10721); assay type: functional;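 further: KIT entry within a kinase panel assay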

Serine/threonine-protein kinase Chk2, sequence (O96017 whole entry): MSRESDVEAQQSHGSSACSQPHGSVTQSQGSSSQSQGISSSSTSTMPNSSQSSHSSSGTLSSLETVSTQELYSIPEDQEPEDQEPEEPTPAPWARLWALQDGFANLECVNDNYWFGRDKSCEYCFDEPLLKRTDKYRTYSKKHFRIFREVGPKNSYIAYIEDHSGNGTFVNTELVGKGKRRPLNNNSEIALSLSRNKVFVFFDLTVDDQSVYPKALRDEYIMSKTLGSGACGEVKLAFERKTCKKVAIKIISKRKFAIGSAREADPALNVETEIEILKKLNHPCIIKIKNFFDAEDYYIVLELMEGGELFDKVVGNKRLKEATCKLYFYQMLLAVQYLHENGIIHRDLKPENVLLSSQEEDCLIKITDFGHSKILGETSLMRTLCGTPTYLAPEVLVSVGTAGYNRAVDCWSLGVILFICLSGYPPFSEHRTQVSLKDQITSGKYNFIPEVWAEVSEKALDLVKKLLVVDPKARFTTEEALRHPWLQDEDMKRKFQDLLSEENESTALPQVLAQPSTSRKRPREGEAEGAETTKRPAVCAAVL
Dual specificity tyrosine-phosphorylation-regulated kinase 4, sequence (Q9NR20 whole entry): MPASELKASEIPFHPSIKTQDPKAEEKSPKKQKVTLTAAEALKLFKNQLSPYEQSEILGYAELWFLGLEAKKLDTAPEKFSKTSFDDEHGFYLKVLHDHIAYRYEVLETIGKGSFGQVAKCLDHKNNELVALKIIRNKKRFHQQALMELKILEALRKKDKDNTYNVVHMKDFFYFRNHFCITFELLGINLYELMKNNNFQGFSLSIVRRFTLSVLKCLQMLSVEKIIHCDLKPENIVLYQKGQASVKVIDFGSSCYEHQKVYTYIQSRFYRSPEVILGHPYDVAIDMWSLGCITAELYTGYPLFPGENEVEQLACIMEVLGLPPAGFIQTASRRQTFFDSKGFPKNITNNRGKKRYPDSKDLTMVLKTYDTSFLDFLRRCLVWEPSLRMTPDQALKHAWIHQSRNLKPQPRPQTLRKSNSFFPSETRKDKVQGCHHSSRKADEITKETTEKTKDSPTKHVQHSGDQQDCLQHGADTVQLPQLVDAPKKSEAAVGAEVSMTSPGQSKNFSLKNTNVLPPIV
Leucine-rich repeat serine/threonine-protein kinase 2, sequence (Q5S007 whole entry): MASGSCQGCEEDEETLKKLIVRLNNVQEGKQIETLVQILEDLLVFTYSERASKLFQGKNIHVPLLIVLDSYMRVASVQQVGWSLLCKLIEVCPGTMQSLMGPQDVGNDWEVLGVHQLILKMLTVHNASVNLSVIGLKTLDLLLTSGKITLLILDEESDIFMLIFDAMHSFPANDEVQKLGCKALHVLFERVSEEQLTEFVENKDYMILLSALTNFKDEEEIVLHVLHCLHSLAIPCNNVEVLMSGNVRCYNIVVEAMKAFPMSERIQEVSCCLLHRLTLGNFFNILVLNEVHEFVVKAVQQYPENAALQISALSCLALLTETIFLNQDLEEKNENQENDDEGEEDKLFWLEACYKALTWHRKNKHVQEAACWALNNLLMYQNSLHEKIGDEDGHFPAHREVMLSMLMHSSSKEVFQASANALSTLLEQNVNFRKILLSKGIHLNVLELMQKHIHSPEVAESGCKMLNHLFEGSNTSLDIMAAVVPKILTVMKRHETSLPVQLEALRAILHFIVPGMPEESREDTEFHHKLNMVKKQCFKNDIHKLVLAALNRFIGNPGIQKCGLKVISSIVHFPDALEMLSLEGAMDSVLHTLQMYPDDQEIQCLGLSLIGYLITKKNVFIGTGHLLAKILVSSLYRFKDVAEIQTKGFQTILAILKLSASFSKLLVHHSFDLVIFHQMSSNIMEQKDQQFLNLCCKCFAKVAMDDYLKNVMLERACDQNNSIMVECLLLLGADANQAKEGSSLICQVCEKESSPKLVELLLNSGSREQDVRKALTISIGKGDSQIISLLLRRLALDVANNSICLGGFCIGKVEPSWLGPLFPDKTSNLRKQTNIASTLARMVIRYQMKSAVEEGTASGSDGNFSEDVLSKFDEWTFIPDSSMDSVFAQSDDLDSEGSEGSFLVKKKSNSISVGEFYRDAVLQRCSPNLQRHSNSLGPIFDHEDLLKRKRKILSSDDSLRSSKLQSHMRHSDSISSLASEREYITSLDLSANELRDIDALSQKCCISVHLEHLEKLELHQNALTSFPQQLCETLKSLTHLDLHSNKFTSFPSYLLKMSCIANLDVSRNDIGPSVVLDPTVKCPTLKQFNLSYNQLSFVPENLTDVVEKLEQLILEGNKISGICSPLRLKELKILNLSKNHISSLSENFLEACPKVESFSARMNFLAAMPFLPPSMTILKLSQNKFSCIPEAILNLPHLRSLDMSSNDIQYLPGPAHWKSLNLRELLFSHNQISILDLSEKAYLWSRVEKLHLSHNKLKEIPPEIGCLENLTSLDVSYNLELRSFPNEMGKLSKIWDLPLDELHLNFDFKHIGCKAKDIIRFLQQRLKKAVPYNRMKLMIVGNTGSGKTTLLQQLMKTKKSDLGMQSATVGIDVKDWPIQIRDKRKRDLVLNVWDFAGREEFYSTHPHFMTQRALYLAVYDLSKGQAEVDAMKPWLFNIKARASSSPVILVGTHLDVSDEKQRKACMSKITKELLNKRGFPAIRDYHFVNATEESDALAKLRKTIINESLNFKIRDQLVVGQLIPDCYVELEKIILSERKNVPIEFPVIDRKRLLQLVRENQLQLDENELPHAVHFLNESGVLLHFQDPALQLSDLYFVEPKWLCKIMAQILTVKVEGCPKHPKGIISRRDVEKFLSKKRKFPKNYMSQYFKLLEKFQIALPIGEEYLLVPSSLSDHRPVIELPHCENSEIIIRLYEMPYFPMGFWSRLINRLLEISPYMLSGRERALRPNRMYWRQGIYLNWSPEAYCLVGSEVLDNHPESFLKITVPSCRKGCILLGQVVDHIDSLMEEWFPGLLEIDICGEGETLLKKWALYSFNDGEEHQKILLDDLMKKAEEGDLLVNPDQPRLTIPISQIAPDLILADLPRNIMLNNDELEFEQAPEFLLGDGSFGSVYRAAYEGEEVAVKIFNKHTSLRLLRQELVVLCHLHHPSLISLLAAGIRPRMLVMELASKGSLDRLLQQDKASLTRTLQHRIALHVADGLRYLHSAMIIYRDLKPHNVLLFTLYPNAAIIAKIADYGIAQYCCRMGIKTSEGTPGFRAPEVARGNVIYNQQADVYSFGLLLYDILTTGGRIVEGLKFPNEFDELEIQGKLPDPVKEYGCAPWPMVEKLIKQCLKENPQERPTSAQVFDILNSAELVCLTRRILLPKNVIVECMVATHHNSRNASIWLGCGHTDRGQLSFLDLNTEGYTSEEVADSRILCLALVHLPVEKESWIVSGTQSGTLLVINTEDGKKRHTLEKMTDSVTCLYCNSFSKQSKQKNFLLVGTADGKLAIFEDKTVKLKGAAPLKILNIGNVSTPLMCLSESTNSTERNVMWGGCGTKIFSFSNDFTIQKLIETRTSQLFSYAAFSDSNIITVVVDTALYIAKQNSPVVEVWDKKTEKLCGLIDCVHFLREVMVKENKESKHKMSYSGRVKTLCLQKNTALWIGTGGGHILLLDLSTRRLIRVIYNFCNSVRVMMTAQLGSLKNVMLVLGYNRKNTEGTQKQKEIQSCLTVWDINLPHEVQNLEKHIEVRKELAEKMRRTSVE
RAC-gamma serine/threonine-protein kinase, sequence (Q9Y243 whole entry): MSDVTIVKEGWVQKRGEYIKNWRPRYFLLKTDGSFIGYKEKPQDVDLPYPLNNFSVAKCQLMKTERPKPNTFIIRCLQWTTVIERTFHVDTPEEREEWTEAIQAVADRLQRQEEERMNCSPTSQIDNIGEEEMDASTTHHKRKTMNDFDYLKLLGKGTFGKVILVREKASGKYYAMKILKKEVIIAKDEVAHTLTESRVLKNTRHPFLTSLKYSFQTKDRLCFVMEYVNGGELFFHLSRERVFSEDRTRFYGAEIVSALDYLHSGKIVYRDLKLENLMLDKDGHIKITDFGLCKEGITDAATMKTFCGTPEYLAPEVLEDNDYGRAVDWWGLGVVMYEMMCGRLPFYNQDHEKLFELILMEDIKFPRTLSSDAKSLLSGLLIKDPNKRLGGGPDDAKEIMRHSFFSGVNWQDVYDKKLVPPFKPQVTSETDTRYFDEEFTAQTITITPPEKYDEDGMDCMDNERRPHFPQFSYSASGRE
Dual specificity protein kinase CLK2, sequence (P49760 whole entry): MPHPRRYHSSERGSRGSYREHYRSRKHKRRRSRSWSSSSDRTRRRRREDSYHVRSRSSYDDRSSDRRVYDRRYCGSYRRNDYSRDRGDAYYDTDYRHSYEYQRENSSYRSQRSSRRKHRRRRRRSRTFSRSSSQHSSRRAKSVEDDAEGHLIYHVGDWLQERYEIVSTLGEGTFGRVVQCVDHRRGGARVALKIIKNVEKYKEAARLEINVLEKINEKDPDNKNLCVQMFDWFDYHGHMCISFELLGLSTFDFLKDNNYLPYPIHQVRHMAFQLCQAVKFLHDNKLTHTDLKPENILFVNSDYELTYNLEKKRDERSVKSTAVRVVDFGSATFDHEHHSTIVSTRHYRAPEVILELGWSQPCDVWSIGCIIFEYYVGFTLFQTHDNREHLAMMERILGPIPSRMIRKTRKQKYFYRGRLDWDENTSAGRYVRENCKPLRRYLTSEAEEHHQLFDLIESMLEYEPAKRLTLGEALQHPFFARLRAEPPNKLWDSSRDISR
Protein Tat, sequence (P04608 whole entry): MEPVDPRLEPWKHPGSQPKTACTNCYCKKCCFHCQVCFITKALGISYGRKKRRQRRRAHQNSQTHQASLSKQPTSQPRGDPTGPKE

SMILES: CCOC(=O)C(C(=O)OCC)c1cc(Br)c2noc3c2c1C(=O)c1ccccc1-3
EC50 [1]: 3060 nM (active) | EC50 [2]: 2900 nM (active) | IC50 (Protein Tat): 6440 nM (inconclusive)

SMILES: CS(=O)(=O)c1ccc2c(c1)SC1=NC(=O)/C(=C/c3ccc(O)c(O)c3)C(=N)N12
IC50 [3]: 38100 nM (active)

SMILES: C=CCNC1=C(Cl)C(=O)c2ccccc2C1=O
AC50 [4]: 5580 nM (active) | AC50 (INS1): 7640 nM (active)

Ki [5]: 63.1 nM (active) | Ki (Activin receptor type-1): 1000 nM (active) | Ki [6]: 398 nM (active) | Ki [7]: 6310 nM (active) | Ki [8]: 20 nM (active) | Ki [9]: 501 nM (active) | Ki [10]: 50.1 nM (active) | Ki [11]: 1260 nM (active) | Ki [12]: 1260 nM (active) | Ki [13]: 1000 nM (active) | Ki [14]: 251 nM (active) | Ki [15]: 25.1 nM (active) | Ki [16]: 501 nM (active) | Ki [17]: 2000 nM (active) | Ki [18]: 200 nM (active) | Ki [19]: 100 nM (active) | Ki [20]: > 1260 nM (inactive)
SMILES: COc1ccc(C(=O)Nc2n[nH]c3ccc(-c4cn(Cc5ccccc5)nn4)cc23)cc1OC
